Measurements taken from ChEMBL document CHEMBL4507291 (2021).

How the values were obtained:
[1] = molecular target: Serine/threonine-protein kinase 32B (Homo sapiens) (UniProt Q9NY57)
[2] = molecular target: Protein-tyrosine kinase 6 (Homo sapiens) (UniProt Q13882)
[3] = molecular target: Ribosomal protein S6 kinase beta-1 (Homo sapiens) (UniProt P23443)
[4] = molecular target: T1, Mitogen-activated protein kinase 13 (Homo sapiens) (UniProt O15264)
T1 sequence (whole entry): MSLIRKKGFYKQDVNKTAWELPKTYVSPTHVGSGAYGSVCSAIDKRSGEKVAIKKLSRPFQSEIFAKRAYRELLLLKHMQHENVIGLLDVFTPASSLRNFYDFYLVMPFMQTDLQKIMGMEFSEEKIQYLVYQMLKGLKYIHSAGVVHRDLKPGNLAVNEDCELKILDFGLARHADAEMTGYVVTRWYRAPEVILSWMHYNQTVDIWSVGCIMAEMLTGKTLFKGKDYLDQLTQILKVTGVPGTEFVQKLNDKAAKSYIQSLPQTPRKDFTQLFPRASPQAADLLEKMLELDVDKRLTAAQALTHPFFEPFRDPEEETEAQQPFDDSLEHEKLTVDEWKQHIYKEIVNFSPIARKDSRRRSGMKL

[5] = tested on: Receptor-type tyrosine-protein kinase FLT3 (Homo sapiens), P36888 [UNDEFINED MUTATION]
[6] = molecular target: Dual specificity protein kinase CLK1 (Homo sapiens) (UniProt P49759)
[7] = molecular target: Epidermal growth factor receptor (Homo sapiens) (UniProt P00533)
[8] = molecular target: SRSF protein kinase 3 (Homo sapiens) (UniProt Q9UPE1)
[9] = molecular target: Casein kinase I isoform delta (Homo sapiens) (UniProt P48730)
[10] = tested on: Epidermal growth factor receptor (Homo sapiens), P00533 [L861Q]
[11] = molecular target: Mitotic checkpoint serine/threonine-protein kinase BUB1 (Homo sapiens) (UniProt O43683)
[12] = molecular target: Serine/threonine-protein kinase WNK1 (Homo sapiens) (UniProt Q9H4A3)
[13] = molecular target: T2, Mitogen-activated protein kinase kinase kinase 2 (Homo sapiens) (UniProt Q9Y2U5)
T2 sequence (whole entry): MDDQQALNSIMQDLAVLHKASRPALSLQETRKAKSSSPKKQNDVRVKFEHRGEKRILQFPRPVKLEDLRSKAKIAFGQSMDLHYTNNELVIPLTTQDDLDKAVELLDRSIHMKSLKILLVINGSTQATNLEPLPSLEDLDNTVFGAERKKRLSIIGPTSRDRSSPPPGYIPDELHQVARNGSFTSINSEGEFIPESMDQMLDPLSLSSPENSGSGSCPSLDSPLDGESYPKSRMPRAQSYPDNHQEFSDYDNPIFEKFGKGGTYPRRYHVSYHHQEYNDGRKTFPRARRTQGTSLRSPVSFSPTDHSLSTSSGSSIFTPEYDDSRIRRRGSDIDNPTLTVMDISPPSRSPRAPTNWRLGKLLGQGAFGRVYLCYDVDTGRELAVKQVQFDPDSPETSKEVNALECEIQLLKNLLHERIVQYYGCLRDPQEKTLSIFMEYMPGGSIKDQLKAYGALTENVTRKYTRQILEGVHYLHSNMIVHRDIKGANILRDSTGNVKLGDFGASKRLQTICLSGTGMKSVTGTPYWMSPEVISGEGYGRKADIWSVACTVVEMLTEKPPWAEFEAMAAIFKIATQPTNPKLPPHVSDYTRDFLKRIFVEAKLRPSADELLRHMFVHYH

[14] = molecular target: T3, cAMP-dependent protein kinase catalytic subunit PRKX (Homo sapiens) (UniProt P51817)
T3 sequence (whole entry): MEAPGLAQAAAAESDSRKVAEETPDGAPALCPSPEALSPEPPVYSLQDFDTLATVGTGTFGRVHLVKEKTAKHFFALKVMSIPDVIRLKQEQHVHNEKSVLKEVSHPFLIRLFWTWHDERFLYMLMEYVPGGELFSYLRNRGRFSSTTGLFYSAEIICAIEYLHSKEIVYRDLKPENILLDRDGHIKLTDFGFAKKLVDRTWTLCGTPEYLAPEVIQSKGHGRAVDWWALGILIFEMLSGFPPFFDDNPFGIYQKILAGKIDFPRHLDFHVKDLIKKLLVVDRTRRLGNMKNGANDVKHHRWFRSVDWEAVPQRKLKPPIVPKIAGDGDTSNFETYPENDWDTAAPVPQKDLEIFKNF

[15] = molecular target: Serine/threonine-protein kinase LATS2 (Homo sapiens) (UniProt Q9NRM7)
[16] = molecular target: Mitogen-activated protein kinase 3 (Homo sapiens) (UniProt P27361)
[17] = molecular target: Cyclin-dependent kinase 17 (Homo sapiens) (UniProt Q00537)
[18] = molecular target: 5'-AMP-activated protein kinase catalytic subunit alpha-1 (Homo sapiens) (UniProt Q13131)
[19] = molecular target: LIM domain kinase 2 (Homo sapiens) (UniProt P53671)
[20] = molecular target: Serine/threonine-protein kinase PAK 4 (Homo sapiens) (UniProt O96013)
[21] = molecular target: Tyrosine-protein kinase JAK1 (Homo sapiens) (UniProt P23458)
[22] = molecular target: Tyrosine-protein kinase Srms (Homo sapiens) (UniProt Q9H3Y6)
[23] = molecular target: Insulin-like growth factor 1 receptor (Homo sapiens) (UniProt P08069)
[24] = tested on: Serine/threonine-protein kinase B-raf (Homo sapiens), P15056 [V600E]
[25] = molecular target: 5-hydroxytryptamine receptor 2B (Homo sapiens, UniProt P41595); conditions: Compound concentration 10.0 uM
[26] = molecular target: RAC-alpha serine/threonine-protein kinase (Homo sapiens) (UniProt P31749)
[27] = molecular target: Death-associated protein kinase 1 (Homo sapiens) (UniProt P53355)
[28] = Compound concentration 1000.0 nM
[29] = Compound concentration 100.0 nM

Sequence of Dual specificity protein kinase CLK1 (Homo sapiens) (P49759 whole entry, looked up): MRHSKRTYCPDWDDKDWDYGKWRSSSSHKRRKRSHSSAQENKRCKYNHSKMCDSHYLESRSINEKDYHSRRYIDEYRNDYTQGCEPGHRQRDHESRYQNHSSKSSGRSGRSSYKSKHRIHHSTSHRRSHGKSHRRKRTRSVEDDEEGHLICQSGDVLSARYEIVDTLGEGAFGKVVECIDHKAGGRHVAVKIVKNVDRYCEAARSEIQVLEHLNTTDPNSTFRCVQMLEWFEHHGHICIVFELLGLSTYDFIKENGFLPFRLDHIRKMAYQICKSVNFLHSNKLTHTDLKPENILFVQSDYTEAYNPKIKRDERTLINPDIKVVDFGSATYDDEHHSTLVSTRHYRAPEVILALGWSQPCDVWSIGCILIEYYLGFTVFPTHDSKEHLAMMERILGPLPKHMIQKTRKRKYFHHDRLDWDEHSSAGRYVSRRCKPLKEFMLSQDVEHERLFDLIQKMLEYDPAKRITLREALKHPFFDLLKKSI
Sequence of Serine/threonine-protein kinase WNK1 (Homo sapiens) (Q9H4A3 whole entry, looked up): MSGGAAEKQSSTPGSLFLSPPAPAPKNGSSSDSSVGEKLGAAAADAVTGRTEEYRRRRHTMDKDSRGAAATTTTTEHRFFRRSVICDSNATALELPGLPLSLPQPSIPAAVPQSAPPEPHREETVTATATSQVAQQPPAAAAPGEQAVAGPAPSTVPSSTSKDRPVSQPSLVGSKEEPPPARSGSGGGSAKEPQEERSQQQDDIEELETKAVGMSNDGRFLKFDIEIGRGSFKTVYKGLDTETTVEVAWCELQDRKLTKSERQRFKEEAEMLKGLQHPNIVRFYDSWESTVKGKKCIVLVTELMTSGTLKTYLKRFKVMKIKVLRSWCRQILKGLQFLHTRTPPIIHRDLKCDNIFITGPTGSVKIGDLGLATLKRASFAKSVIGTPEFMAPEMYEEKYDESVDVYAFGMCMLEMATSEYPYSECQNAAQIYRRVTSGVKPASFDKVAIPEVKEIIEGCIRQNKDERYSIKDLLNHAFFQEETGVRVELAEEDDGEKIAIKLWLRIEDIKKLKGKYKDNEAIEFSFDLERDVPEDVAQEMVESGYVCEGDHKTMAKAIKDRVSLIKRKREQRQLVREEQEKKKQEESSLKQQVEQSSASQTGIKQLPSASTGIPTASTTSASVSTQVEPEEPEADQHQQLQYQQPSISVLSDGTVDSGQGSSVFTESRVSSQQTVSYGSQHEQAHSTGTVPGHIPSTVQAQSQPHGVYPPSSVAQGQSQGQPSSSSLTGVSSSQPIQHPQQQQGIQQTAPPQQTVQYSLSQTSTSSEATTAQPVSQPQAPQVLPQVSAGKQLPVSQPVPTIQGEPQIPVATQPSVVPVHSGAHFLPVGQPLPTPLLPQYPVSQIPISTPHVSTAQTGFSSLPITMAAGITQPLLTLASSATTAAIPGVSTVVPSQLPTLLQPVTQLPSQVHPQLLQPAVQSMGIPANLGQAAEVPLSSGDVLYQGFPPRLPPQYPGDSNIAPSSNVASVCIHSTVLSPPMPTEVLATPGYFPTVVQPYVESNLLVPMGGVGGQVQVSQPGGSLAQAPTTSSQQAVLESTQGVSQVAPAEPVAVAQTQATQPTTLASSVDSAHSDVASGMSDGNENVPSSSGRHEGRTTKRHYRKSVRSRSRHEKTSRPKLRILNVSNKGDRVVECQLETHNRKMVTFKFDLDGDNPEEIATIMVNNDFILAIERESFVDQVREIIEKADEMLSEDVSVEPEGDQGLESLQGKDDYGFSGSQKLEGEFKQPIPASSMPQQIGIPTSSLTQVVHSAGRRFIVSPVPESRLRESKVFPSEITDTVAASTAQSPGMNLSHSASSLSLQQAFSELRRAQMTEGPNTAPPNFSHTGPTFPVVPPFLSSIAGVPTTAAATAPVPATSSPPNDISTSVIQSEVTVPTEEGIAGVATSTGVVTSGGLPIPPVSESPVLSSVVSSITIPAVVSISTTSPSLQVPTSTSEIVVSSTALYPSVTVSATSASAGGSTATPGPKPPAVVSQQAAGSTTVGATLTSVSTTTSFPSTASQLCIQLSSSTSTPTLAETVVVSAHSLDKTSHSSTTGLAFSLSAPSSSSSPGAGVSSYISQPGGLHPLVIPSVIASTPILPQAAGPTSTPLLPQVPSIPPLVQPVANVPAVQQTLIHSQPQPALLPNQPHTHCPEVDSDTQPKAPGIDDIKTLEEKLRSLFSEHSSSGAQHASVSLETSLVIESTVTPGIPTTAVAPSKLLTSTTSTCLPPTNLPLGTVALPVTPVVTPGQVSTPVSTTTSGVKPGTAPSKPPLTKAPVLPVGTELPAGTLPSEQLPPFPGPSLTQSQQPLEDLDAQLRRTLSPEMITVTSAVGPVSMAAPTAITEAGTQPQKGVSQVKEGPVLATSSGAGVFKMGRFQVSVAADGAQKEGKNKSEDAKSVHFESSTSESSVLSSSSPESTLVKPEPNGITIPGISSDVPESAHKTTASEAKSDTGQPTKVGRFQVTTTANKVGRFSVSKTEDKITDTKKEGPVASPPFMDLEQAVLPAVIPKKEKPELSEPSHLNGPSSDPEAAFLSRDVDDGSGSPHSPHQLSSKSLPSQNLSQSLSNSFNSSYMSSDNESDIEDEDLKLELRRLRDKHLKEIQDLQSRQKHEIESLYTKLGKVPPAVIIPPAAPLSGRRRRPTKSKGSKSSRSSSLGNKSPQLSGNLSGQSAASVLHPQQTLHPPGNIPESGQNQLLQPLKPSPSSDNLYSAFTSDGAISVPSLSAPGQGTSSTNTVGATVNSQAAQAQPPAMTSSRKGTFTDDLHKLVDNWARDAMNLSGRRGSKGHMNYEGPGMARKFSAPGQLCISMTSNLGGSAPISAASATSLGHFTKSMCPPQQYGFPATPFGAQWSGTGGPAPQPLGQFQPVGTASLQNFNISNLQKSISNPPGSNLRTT
Sequence of Mitotic checkpoint serine/threonine-protein kinase BUB1 (Homo sapiens) (O43683 whole entry, looked up): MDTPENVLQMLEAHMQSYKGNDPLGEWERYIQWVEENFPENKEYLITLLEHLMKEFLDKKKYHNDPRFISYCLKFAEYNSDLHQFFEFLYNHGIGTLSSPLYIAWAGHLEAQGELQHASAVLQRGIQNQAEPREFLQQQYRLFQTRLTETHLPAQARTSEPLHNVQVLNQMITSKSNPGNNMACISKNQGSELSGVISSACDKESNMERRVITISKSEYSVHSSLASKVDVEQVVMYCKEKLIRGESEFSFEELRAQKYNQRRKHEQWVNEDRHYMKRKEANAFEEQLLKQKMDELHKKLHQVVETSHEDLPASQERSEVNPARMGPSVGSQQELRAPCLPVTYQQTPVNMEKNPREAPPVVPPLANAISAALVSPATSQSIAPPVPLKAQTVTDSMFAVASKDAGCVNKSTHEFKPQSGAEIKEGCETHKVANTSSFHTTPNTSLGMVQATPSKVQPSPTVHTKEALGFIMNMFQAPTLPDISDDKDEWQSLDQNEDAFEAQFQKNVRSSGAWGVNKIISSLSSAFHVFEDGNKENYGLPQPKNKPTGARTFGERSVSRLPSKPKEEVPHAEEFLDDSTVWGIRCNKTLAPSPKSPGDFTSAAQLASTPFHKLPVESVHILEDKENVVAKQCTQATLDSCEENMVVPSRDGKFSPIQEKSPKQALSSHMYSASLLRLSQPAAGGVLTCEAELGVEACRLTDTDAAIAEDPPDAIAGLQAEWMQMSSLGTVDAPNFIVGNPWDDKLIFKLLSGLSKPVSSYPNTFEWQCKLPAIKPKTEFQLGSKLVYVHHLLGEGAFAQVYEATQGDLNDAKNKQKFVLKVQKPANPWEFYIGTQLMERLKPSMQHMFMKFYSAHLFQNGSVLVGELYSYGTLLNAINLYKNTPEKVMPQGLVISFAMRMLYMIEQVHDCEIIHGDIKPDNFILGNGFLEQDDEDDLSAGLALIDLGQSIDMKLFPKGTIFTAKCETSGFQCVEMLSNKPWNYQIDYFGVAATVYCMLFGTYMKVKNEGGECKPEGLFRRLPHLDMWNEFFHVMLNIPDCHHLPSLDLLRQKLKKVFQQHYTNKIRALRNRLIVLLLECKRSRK
Sequence of Serine/threonine-protein kinase 32B (Homo sapiens) (Q9NY57 whole entry): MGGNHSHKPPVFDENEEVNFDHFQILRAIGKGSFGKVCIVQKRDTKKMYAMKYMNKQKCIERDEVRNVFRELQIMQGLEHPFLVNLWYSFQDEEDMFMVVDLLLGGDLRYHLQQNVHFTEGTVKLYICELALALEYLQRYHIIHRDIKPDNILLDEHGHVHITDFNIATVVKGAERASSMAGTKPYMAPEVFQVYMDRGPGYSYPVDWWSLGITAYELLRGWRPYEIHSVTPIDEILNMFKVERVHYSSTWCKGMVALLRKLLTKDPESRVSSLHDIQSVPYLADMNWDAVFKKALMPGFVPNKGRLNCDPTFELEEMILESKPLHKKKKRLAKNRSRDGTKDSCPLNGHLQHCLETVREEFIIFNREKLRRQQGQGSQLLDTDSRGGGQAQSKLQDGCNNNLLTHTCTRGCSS
Sequence of RAC-alpha serine/threonine-protein kinase (Homo sapiens) (P31749 whole entry): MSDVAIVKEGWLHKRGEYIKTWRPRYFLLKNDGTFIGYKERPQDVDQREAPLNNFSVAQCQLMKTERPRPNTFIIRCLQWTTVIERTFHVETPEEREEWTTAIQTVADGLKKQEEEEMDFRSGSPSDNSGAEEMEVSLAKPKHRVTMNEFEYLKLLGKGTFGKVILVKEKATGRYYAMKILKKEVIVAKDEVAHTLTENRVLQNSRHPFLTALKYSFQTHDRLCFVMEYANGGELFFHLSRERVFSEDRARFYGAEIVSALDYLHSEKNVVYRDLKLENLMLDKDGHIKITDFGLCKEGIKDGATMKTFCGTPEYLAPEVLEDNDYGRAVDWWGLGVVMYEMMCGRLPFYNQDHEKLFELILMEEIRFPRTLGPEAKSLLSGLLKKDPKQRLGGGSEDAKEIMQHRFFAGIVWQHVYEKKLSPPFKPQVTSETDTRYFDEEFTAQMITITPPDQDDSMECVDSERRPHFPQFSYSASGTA

C[C@@H]1CN(c2cc(-c3nn(C)c4ccc(OC5(C)CC5)cc34)ncn2)C[C@H](C)O1 [MLi-2-NC]
inactive: residual activity [1, 28] 100% | residual activity [2, 28] 92% | residual activity [3, 28] 100% | residual activity [4, 28] 100% | residual activity [5, 28] 87% | residual activity [6, 28] 86% | residual activity [7, 28] 97% | residual activity [8, 28] 98% | residual activity [9, 28] 84% | residual activity [10, 28] 83% | residual activity [11, 28] 89% | residual activity [12, 28] 82% | residual activity [13, 28] 83% | residual activity [14, 28] 92% | residual activity [15, 28] 58% | residual activity [16, 28] 100% | residual activity [17, 28] 88% | residual activity [18, 28] 93% | residual activity [19, 28] 92% | residual activity [20, 28] 93% | residual activity [21, 28] 100% | residual activity [22, 28] 83% | residual activity [23, 28] 100% | residual activity [24, 28] 91% | inhibition [25] 26.7% | residual activity [26, 28] 100% | residual activity [27, 28] 100%

C[C@@H]1CN(c2cc(-c3n[nH]c4ccc(OC5(C)CC5)cc34)ncn2)C[C@H](C)O1 [MLi-2]
inactive: residual activity [1, 29] 92% | residual activity [2, 29] 100% | residual activity [3, 29] 73% | residual activity [4, 29] 96% | residual activity [5, 29] 69% | residual activity [6, 29] 86% | residual activity [7, 29] 76% | residual activity [8, 29] 100% | residual activity [9, 29] 80% | residual activity [10, 29] 50% | residual activity [11, 29] 84% | residual activity [12, 29] 89% | residual activity [13, 29] 73% | residual activity [14, 29] 86% | residual activity [15, 29] 68% | residual activity [16, 29] 87% | residual activity [17, 29] 89% | residual activity [18, 29] 86% | residual activity [19, 29] 91% | residual activity [20, 29] 97% | residual activity [21, 29] 88% | residual activity [22, 29] 59% | residual activity [23, 29] 100% | residual activity [24, 29] 89% | inhibition [25] 41.4% | residual activity [26, 29] 87% | residual activity [27, 29] 93%
